According to US12195427B2, “MASP-2 inhibitors and methods of use” (priority 2018, dated 2025):

Biological target: MASP-2 CCP2-SP (Homo sapiens (Human), UniProt O00187)
Test: MASP-2 co-crystallization, X-ray crystallography and structure analysis (H-bonds, van der Waals contacts);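 for Ligand-pharmacophore element distance, pharmacophore element C2: distance from averaged pharmacophore element to bound ligand; missing value means element absent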;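 for Ligand-pharmacophore element distance, pharmacophore element C3: distance from averaged pharmacophore element to bound ligand; missing value means element absent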;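 for Ligand-pharmacophore element distance, pharmacophore element C4: distance from averaged pharmacophore element to bound ligand; missing value means element absent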;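 for Ligand-pharmacophore element distance, pharmacophore element C5: distance from averaged pharmacophore element to bound ligand; missing value means element absent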
Parameters: van der Waals contact distance, MASP-2 HIS 483 atom CD2 / van der Waals contact distance, MASP-2 HIS 483 atom NE2 / van der Waals contact distance, SER 654 C to compound atom / van der Waals contact distance, SER 654 O to compound atom / van der Waals contact distance, TRP 655 C to compound atom / van der Waals contact distance, MASP-2 GLY 528 atom CA / van der Waals contact distance TRP 655 atom CZ3 / van der Waals contact distance TRP 655 atom N / van der Waals contact distance TRP 655 atom CE3 / van der Waals contact distance GLY 656 atom C / van der Waals contact distance GLY 656 atom CA / van der Waals contact distance GLY 656 atom O / van der Waals contact distance, MASP-2 TYR 607 atom CD1 / van der Waals contact distance, MASP-2 PRO 606 atom O / d(C3,CA1) / d(CA1,N1)2 / d(H4,O1) / d(H4,O2) / d(O1,O2) / d(CA1,O2) / d(CA6,O1) / d(CA6,O2) / d(CA1,C5) / d(O2,H3) / d(N2,C2) / d(CA5,N2) / d(N2,C4) / d(N2,C6) / d(N2,CA3) / d(N2,O3) / d(O4,H2): unit not given beside the values
Settings: for Ligand-pharmacophore element distance, pharmacophore element C2 / Ligand-pharmacophore element distance, pharmacophore element C3 / Ligand-pharmacophore element distance, pharmacophore element C4 / Ligand-pharmacophore element distance, pharmacophore element C5 / Ligand-pharmacophore element distance, pharmacophore element C6 / Ligand-pharmacophore element distance, pharmacophore element C7 / Ligand-pharmacophore element distance, pharmacophore element CA1 / Ligand-pharmacophore element distance, pharmacophore element CA2 / Ligand-pharmacophore element distance, pharmacophore element CA3 / Ligand-pharmacophore element distance, pharmacophore element CA4 / Ligand-pharmacophore element distance, pharmacophore element CA5 / Ligand-pharmacophore element distance, pharmacophore element CA6: Table A4-1; for d(CA1,C5) / d(CA1,O1) / d(CA1,O4) / d(H4,O1) / d(O4,H2) / d(CA1,O2) / d(H4,O2) / d(O1,O2): Table A5-1 pharmacophore: distance between elements, S2/S1 region; for d(N2,C2) / d(N2,CA2) / d(O2,H3) / d(O2,N2): Table A5-2 pharmacophore distance, S3/S4 region; for a(C5, CA1, O1) / a(CA1, O4, H2) / a(O1, CA1, O4) / a(CA1, O1, O2) / a(O1, O2, H4): Table A6-1 pharmacophore angle; for Pharmacophore torsion angle a(C5, CA1, O1, H4) / Pharmacophore torsion angle a(H4, O1, O2, H3) / Pharmacophore torsion angle a(H4, O1, O2, N2) / Pharmacophore torsion angle a(O1, H4, O2, CA1) / Pharmacophore torsion angle a(O1, O2, N2, C2): Table A7-1; for Pharmacophore torsion angle a(C5, CA1, O1, H4) / Pharmacophore torsion angle a(H4, O1, O2, H3) / Pharmacophore torsion angle a(H4, O1, O2, N2) / Pharmacophore torsion angle a(O1, H4, O2, CA1) / Pharmacophore torsion angle a(O1, O2, N2, C2) / Pharmacophore torsion angle a(O1, O2, N2, CA2): between pharmacophore elements of the bound compound; for a(O1, O2, H3) / a(O1, O2, N2) / a(O2, N2, C2) / a(O2, N2, CA2): Table A6-2 pharmacophore angle; for Pharmacophore torsion angle a(O1, O2, N2, CA2): Table A7-2
Text: This example illustrates the preparation of recombinant MASP-2 protein, based on UniProt O00187, human mannan-binding lectin serine protease 2. Expression constructs for human MASP-2 CCP2-SP and CCP2-SP-6HIS were generated for recombinant expression in E. coli cells.
Typically, crystallization hits were obtained by screening against […] 96-well crystallization reagent kits (GRAS6, GRAS2, Hampton Research; MORPHEUS, Molecular Dimensions; Wizard 1&2 Cryo, Rigaku Reagents) and crystal growth was inspected by optical microscopy. Crystals were used directly or further optimized for X-ray diffraction. Crystals were captured with cryogenic loops and dipped into liquid nitrogen directly or cryoprotected with a 20% glycerol in crystallization formulation before flash-cooling in liquid nitrogen.
Thereafter crystals are transferred once or twice for soaking within the crystallization solution containing the MASP-2 inhibitor.
Crystals were diffracted with synchrotron X-rays of […] and X-ray diffraction datasets were collected at beamlines SSRL BL9-2, BL14-1, BL12-2 as well as ALS sector 5 using Dectris Pilatus and Eiger detectors. Structures were determined by molecular replacement using portions of the structure 1Q3X as search models and partially refined with Buster 2.10.2 or Refmac 5.8. […] When multiple ligand poses were observed, for instance arising from multiple molecules in the asymmetric unit or refined dual poses within the same molecule, only one pose was selected and analyzed.
LigPlot+ calls these ‘nonbonded contacts’ or ‘hydrophobic contacts’. Despite the name, there are atom pairings that include possible H-bonds. Thus, in some instances, the Table A2 also contains H-bond interactions.

Sequence of MASP-2 CCP2-SP (O00187 445-686): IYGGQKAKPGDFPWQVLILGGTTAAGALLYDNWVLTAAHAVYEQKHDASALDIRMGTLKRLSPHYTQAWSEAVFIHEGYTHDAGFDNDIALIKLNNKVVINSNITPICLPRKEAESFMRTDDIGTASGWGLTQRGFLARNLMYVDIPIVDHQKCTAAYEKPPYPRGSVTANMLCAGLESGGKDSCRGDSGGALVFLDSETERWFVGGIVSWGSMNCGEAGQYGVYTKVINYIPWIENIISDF
Sequence of MASP-2 CCP2-SP (O00187 364-432 partner): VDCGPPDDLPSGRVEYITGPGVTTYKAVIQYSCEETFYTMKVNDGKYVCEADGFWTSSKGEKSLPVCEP

Row | SMILES | Ligand-pharmacophore element distance, pharmacophore element C2 | Ligand-pharmacophore element distance, pharmacophore element C3 | Ligand-pharmacophore element distance, pharmacophore element C4 | Ligand-pharmacophore element distance, pharmacophore element C5 | Ligand-pharmacophore element distance, pharmacophore element C6 | Ligand-pharmacophore element distance, pharmacophore element C7 | Ligand-pharmacophore element distance, pharmacophore element CA1 | Ligand-pharmacophore element distance, pharmacophore element CA2 | Ligand-pharmacophore element distance, pharmacophore element CA3 | Ligand-pharmacophore element distance, pharmacophore element CA4 | Ligand-pharmacophore element distance, pharmacophore element CA5 | Ligand-pharmacophore element distance, pharmacophore element CA6 | d(CA1,C5) | d(CA1,O1) | d(CA1,O4) | d(H4,O1) | d(O4,H2) | d(N2,C2) | d(N2,CA2) | a(C5, CA1, O1) | other results
1 | C[C@H](NC(=O)[C@H]1C[C@@H](c2ccccc2)CCN1)C(=O)NCc1cc(Cl)ccc1O.Cl [1078_6] | 1.09 | 0 | 0 | 0.48 | 0 | 0 | 1.31 | 0.65 | 0 | 0 | 0 | 0 | 3.11 | 5.90 | 2.75 | 2.75 | 0.98 | 1.49 | 5.49 | 152.72 | a(CA1, O4, H2): 126.69; a(O1, CA1, O4): 67.49; Pharmacophore torsion angle a(C5, CA1, O1, H4): −22.50
2 | C[C@H](NC(=O)[C@H]1C[C@@H](c2ccccc2)CCN1)C(=O)NCc1cc(Cl)ccc1O.Cl [1078_7] | 0.64 | 0 | 0 | 0.61 | 0 | 0 | 1.69 | 0.55 | 0 | 0 | 0 | 0 | 3.14 | 4.83 | 2.77 | 2.08 | 0.97 | 1.47 | 5.74 | 158.86 | d(CA1,O2): 4.83; d(H4,O2): 2.49; d(O1,O2): 3.35; d(O2,H3): 3.26; d(O2,N2): 3.04; a(CA1, O1, O2): 110.36; a(CA1, O4, H2): 126.10; a(O1, CA1, O4): 67.29; a(O1, O2, H4): 86.28; a(O1, O2, H3): 137.32; a(O1, O2, N2): 140.50; a(O2, N2, C2): 114.22; a(O2, N2, CA2): 151.33; Pharmacophore torsion angle a(C5, CA1, O1, H4): 30.48; Pharmacophore torsion angle a(H4, O1, O2, H3): −121.10; Pharmacophore torsion angle a(H4, O1, O2, N2): −116.26; Pharmacophore torsion angle a(O1, H4, O2, CA1): −57.85; Pharmacophore torsion angle a(O1, O2, N2, C2): 144.61; Pharmacophore torsion angle a(O1, O2, N2, CA2): 143.84
3 | C[C@H](NC(=O)[C@H]1C[C@@H](c2ccccc2)CCN1)C(=O)NCc1cc(Cl)ccc1O.Cl [1078_8] | 0.85 | 0 | 0 | 0.78 | 0 | 0 | 1.67 | 0.92 | 0 | 0 | 0 | 0 | 3.10 | 4.33 | 2.75 | 2.28 | 0.98 | 1.44 | 5.66 | 159.05 | d(CA1,O2): 4.59; d(H4,O2): 2.53; d(O1,O2): 2.73; d(O2,H3): 2.69; d(O2,N2): 2.85; a(CA1, O1, O2): 112.99; a(CA1, O4, H2): 125.48; a(O1, CA1, O4): 73.28; a(O1, O2, H4): 111.09; a(O1, O2, H3): 140.66; a(O1, O2, N2): 145.13; a(O2, N2, C2): 125.44; a(O2, N2, CA2): 153.81; Pharmacophore torsion angle a(C5, CA1, O1, H4): 5.11; Pharmacophore torsion angle a(H4, O1, O2, H3): −134.33; Pharmacophore torsion angle a(H4, O1, O2, N2): −122.87; Pharmacophore torsion angle a(O1, H4, O2, CA1): −58.50; Pharmacophore torsion angle a(O1, O2, N2, C2): 135.84; Pharmacophore torsion angle a(O1, O2, N2, CA2): 143.43
4 | C[C@H](NC(=O)[C@H]1C[C@@H](c2ccccc2)CCN1)C(=O)NCc1cc(Cl)ccc1O.Cl [1078_9] | 0.67 | 0 | 0 | 0.46 | 0 | 0 | 1.62 | 0.56 | 0 | 0 | 0 | 0 | 3.11 | 4.31 | 2.74 | 2.21 | 0.98 | 1.46 | 5.71 | 161.68 | d(CA1,O2): 4.77; d(H4,O2): 2.49; d(O1,O2): 3.11; d(O2,H3): 3.06; d(O2,N2): 2.89; a(CA1, O1, O2): 117.85; a(CA1, O4, H2): 128.05; a(O1, CA1, O4): 66.67; a(O1, O2, H4): 97.24; a(O1, O2, H3): 142.04; a(O1, O2, N2): 146.14; a(O2, N2, C2): 119.45; a(O2, N2, CA2): 153.36; Pharmacophore torsion angle a(C5, CA1, O1, H4): 14.92; Pharmacophore torsion angle a(H4, O1, O2, H3): −116.62; Pharmacophore torsion angle a(H4, O1, O2, N2): −110.81; Pharmacophore torsion angle a(O1, H4, O2, CA1): −50.72; Pharmacophore torsion angle a(O1, O2, N2, C2): 144.64; Pharmacophore torsion angle a(O1, O2, N2, CA2): 146.06
